# Values quoted from earlier work, collected in patent publication US20100120723A1, “PHARMACEUTICAL COMPOSITION COMPRISING A HOT-MELT GRANULATED LUBRICANT” (priority 2006, published 2010).
# System: bone resorption
# Conditions: animal models of bone resorption
structure (smiles),measurement,value
CCCCCN(C)CCC(O)(P(=O)(O)O)P(=O)(O)O [Sodium ibandronate],"potency relative to alendronate, risedronate, pamidronate and clodronate",many times more potent
